In publication PMC9916778 (International Journal of Molecular Sciences, 2023):

Tests used:
[1] = system: A2780 ovarian carcinoma cells; experiment: In vitro cytotoxicity (MTT assay), A2780; type: cell-based, human; conditions: MTT, 24 h incubation, ± standard deviation, triplicate; read-out: IC50, A2780
Method: (§1) The reference normal cell line of human fetal fibroblasts (MRC-5) was obtained from the same commercial source and maintained according to the producer’s instructions. The half-maximal inhibitory concentrations (IC50) were calculated from dose–response curves by means of the GraphPad Prism 6 software (GraphPad Software, San Diego, CA, USA).

[2] = system: MRC5 human fetal fibroblasts; experiment: In vitro cytotoxicity (MTT assay), normal MRC-5 fibroblasts; type: cell-based; conditions: ± standard deviation, triplicate, read-out: IC50, MRC5 (healthy cells)
Method: as §1, with “The testing was performed on the ovarian carcinoma (A2780), Cisplatin-resistant ovarian carcinoma (A2780R), prostate adenocarcinoma (PC-3), prostate carcinoma (22Rv1), and leukemia monocytic (THP-1) and intestinal colon adenocarcinoma (LS180) human cell lines that were obtained from the ATCC collection of cell lines and cultivated according to the producer’s instructions. The reference” for “The reference”

PPARγ = experiment: Immunocytochemical analysis of PPARγ expression and localisation; type: cell-based, human; conditions: 100 nM, 1 h pre-treatment, LPS-stimulated THP1-Blue NF-κB macrophages
Method: THP1-Blue™ NF-κB cells were seeded onto a µ-Slide 8 Well (Ibidi; Gräfelfing, Germany) and differentiated into macrophages by […] (PMA) at the final concentration of 50 ng/mL, as was described previously.
Differentiated macrophages were washed by PBS and covered by fresh serum-free medium for 2 h. […] One hour later, the cells were challenged by LPS for 24 h. Then, the cells were washed by PBS and fixed by 4% paraformaldehyde dissolved in PBS for 10 min. Cell permeabilization and blocking of free binding sites were performed by 0.1% (v/v) Triton X100 and 5% (w/v) bovine serum albumin (BSA) dissolved in PBS for 1 h at room temperature. After that, cells were washed by PBS with 0.1% (v/v) Tween 20 and covered by fresh PBS with 5% BSA and 0.1% Tween 20 containing Alexa Fluor® 546-labelled anti-PPARγ antibody diluted 1:100 (catalogue number sc-7273; Santa Cruz Biotechnology; Dallas, TX, USA) for a further 24 h. Then, cells were washed by PBS with 0.1% Tween 20 and incubated with Hoechst stain diluted 1:2000 for 10 min. The remaining stain was washed out by PBS and covered by fresh PBS for further microscope analysis. The confocal microscope Leica TCS SP8 MP (Leica Microsystems, Mannheim, Germany) was used for obtaining the images for the immunocytochemical analysis of PPARγ expression and localization.

[3] = system: PC-3 prostate adenocarcinoma cells; experiment: In vitro cytotoxicity (MTT assay), PC-3; type: cell-based, human; conditions: ± standard deviation, triplicate
Method: as §1, with “The testing was performed on the ovarian carcinoma (A2780), Cisplatin-resistant ovarian carcinoma (A2780R), prostate adenocarcinoma (PC-3), prostate carcinoma (22Rv1), and leukemia monocytic (THP-1) and intestinal colon adenocarcinoma (LS180) human cell lines that were obtained from the ATCC collection of cell lines and cultivated according to the producer’s instructions. The reference” for “The reference”

[4] = system: human cancer cell lines (A2780, A2780R, PC-3, 22Rv1, and THP-1); experiment: In vitro cytotoxicity, summary statements over the panel of cell lines; type: cell-based; conditions: read-out: IC50 of kinetin; A2780, A2780R, PC-3; concentration range 0.01–25 μM
Method: as §1, with “The testing was performed on the ovarian carcinoma (A2780), Cisplatin-resistant ovarian carcinoma (A2780R), prostate adenocarcinoma (PC-3), prostate carcinoma (22Rv1), and leukemia monocytic (THP-1) and intestinal colon adenocarcinoma (LS180) human cell lines that were obtained from the ATCC collection of cell lines and cultivated according to the producer’s instructions. The reference” for “The reference”

[5] = system: A2780R Cisplatin-resistant ovarian carcinoma cells; experiment: In vitro cytotoxicity (MTT assay), A2780R; type: cell-based, human; conditions: ± standard deviation, triplicate
Method: as §1, with “The testing was performed on the ovarian carcinoma (A2780), Cisplatin-resistant ovarian carcinoma (A2780R), prostate adenocarcinoma (PC-3), prostate carcinoma (22Rv1), and leukemia monocytic (THP-1) and intestinal colon adenocarcinoma (LS180) human cell lines that were obtained from the ATCC collection of cell lines and cultivated according to the producer’s instructions. The reference” for “The reference”

MCF-7 cells = conditions: literature data ref 22; cited from earlier work
THP1-Blue™ NF-κB cells = experiment: Cell viability, CCK-8, serum-free medium; type: cell-based, human; conditions: THP1-Blue NF-κB cells, serum-free medium, 24 h treatment, CCK-8; read-out: IC50 ± SEM, cytotoxic effect
Method: The cells were cultivated in RPMI (Roswell Park Memorial Institute) 1640 medium (Biosera; Nuaille, France) supplemented with 10% fetal bovine serum (FBS) and antibiotics (100 U/mL penicillin and […] streptomycin) (both from Merck). All further experiments were performed in serum-free medium. The effect of the test compounds dissolved in DMF on cell viability after 24 h incubation was determined using a Cell Counting Kit-8 (CCK-8; Merck) according to the manufacturer’s instructions, similarly as previously described.

A2780 cells [6] = experiment: Cell cycle analysis (flow cytometry); type: cell-based, human; conditions: A2780, half-cytotoxic concentration, 24 h
Method: After 24 h, the cells were treated with a 4 µM solution of complex (1) and cultivated for the next 24 h. Then, the cells were washed once with PBS (0.1 M, pH 7.4), and cell cycle analysis was performed using a BD Cycletest^TM Plus DNA kit (Becton Dickinson, Franklin Lakes, NJ, USA) according to the manufacturer’s protocol. The data were acquired using a BD FACSVerse flow cytometer (Becton Dickinson, USA) in three independent experiments, each performed in duplicate, while at least 5 × 10^3 events were recorded for each sample.

A2780 cells [7] = experiment: Induction of apoptosis, Annexin V-FITC/PI staining; type: cell-based, human; conditions: A2780, half-cytotoxic concentration, 24 h
Method: (§2) The induction of cell death by complex (1) was studied by two methods in the A2780 cell line. Firstly, the induction of apoptosis was tested using an Annexin V-FITC/PI commercial kit (V13242, Thermo Fisher Scientific, USA). Second, caspase 3/7 activation was monitored using the CellEvent™ Caspase-3/7 Green Flow Cytometry Assay Kit (C10427, Thermo Fisher Scientific, USA). Both assays were performed according to the manufacturers’ protocols with one modification in the caspase induction assay: the use of CellEvent^TM Caspase-3/7 Green Detection Reagent was only for the detection of caspase 3/7 activation. The general procedure was as follows: 5 × 10^4 cells per well were seeded in a 24-well cell culture plate, and after 24 h, the cells were treated with 4 µM solution of complex (1) and cultivated for next 24 h. […] The trypsin was blocked by adding the cell culture medium to a final volume of 500 µL, and the resulting cell suspensions were divided into two separate 250 µL aliquots. The first set of aliquots was used to evaluate the Annexin V-FITC/PI assay, whilst the second one was used for the caspase 3/7 activation assay. Both assays were performed using a BD FACSVerse flow cytometer (Becton Dickinson, USA) in three independent experiments, each performed in duplicate.

caspases 3/7 = experiment: Caspase 3/7 activation (flow cytometry); type: cell-based, human; conditions: A2780, half-cytotoxic concentration, 24 h
Method: as §2

[8] = system: LS180 intestinal colon adenocarcinoma cells; experiment: In vitro cytotoxicity (MTT assay), LS180; type: cell-based, human; conditions: ± standard deviation, triplicate
Method: as §1, with “The testing was performed on the ovarian carcinoma (A2780), Cisplatin-resistant ovarian carcinoma (A2780R), prostate adenocarcinoma (PC-3), prostate carcinoma (22Rv1), and leukemia monocytic (THP-1) and intestinal colon adenocarcinoma (LS180) human cell lines that were obtained from the ATCC collection of cell lines and cultivated according to the producer’s instructions. The reference” for “The reference”

A2780 cells [9] = experiment: Induction of autophagy (CYTO-ID kit); type: cell-based, human; conditions: A2780, half-cytotoxic concentration, 24 h
Method: The induction of autophagy by complex (1) was studied using a CYTO-ID® Autophagy Detection Kit 2.0 (ENZO, New York, NY, USA) according to the manufacturer’s protocol. Briefly, the A2780 cells were seeded in a 24-well cell culture plate at 5 × 10^4 cells per well and cultivated for 24 h. The next day, the cells were treated with complex (1) at 4 µM. […] Then, the cells were stained with CYTO-ID® Green stain solution and incubated for 30 min in the dark. After the final wash with PBS, the cell suspensions were analyzed using the BD FACSVerse flow cytometer (Becton Dickinson, USA) in three separate experiments, while at least 10^4 events were recorded for each sample prepared in duplicates. The cells incubated with the mixture of chloroquine (10 µM) and rapamycin (0.5 µM) for 18 h were used as a positive control.

[10] = system: 22Rv1 prostate carcinoma cells; experiment: In vitro cytotoxicity (MTT assay), 22Rv1; type: cell-based, human; conditions: ± standard deviation, triplicate
Method: as §1, with “The testing was performed on the ovarian carcinoma (A2780), Cisplatin-resistant ovarian carcinoma (A2780R), prostate adenocarcinoma (PC-3), prostate carcinoma (22Rv1), and leukemia monocytic (THP-1) and intestinal colon adenocarcinoma (LS180) human cell lines that were obtained from the ATCC collection of cell lines and cultivated according to the producer’s instructions. The reference” for “The reference”

A2780 cells [11] = experiment: Intracellular ROS/superoxide production; type: cell-based, human; conditions: A2780, half-cytotoxic concentration, 24 h, with or without pyocyanin
Method: ROS induction in A2780 cells after incubation with 4 μM complex (1) was studied using a ROS-ID® Total ROS/Superoxide detection kit (Enzo Life Sciences, Farmingdale, NY, USA) according to the manufacturer’s protocol. The cells were seeded in a 96-well cell culture plates at 10^4 cells per well and cultivated for 24 h, followed by 24 h experimental treatment. Then, the cells were stained with ROS/superoxide probe mixture and incubated at 37 °C in the dark for 60 min. Finally, the fluorescence was measured using a microplate reader Infinite M200Pro (Tecan, Männedorf, Switzerland). The control samples contained 500 µM pyocyanin, and three independent experiments were conducted, each in triplicate.

A2780 cells [12] = experiment: Mitochondrial membrane potential analysis (MITO-ID); type: cell-based, human; conditions: A2780, half-cytotoxic concentration, 24 h
Method: The A2780 cells were seeded in 24-well cell culture plates at 5 × 10^4 cells/well and cultivated for 24 h. The next day, the complex (1) was added to a final concentration of 4 µM, and the cells were incubated for another 24 h. […] The cells were then isolated by centrifugation and resuspended in a staining solution prepared according to the manufacturer’s protocol from a MITO-ID® Membrane Potential Detection kit (Enzo Life Sciences, USA). Finally, the cells were analyzed using a BD FACSVerse flow cytometer (Becton Dickinson, USA). The control was carried out by treatment with 2 µM carbonyl cyanide 3-chlorophenylhydrazone (CCCP). Three independent experiments were conducted, each in duplicate.

Compound	IC50 [1]	IC50 [2]	Effect on the amount of PPARγ (PPARγ)	IC50 [3]	IC50 [4]	IC50 [5]	IC50 (MCF-7 cells)	IC50 (THP1-Blue™ NF-κB cells)	Effect on the cell cycle (A2780 cells [6])	Number of cells in the G0/G1 phase (A2780 cells [6]; vs untreated control)	Cells in early and late-stage apoptosis (A2780 cells [7])	Cells with active executioner caspases 3/7 (caspases 3/7)	IC50 [8]	Induction of autophagy (A2780 cells [9])	IC50 [10]	Intracellular oxidative stress, ROS and superoxide levels (A2780 cells [11])	Damage to mitochondrial membranes (A2780 cells [12])
6-furfuryladenine [Kinetin]	> 25 µM	> 25 µM	did not show this effect	> 25 µM	> 25 µM	> 25 µM	52 µM	> 10 µM	–	–	–	–	–	–	–	–	–
N.N.[Cl][Pt][Cl] [Cisplatin]	–	> 50 µM	–	> 50 µM	–	> 50 µM	–	–	arrested a significant number of cells in S-phase	significant decrease in the number of cells in the G0/G1 phase	around 40%	around 50%	> 50 µM	significantly induced the autophagy	28.2 ± 4.2 µM	did not cause a significant increase in the intracellular oxidative stress	Significant changes in mitochondrial membrane permeability
